Patent US20110306621A1, “ACYLGUANIDINE DERIVATIVES” (priority 2009, published 2011)

What follows are molecules tested against T1, human 5-HT5A receptor (Homo sapiens, UniProt P47898) (assay: Test on a human 5-HT5A receptor binding inhibition ([3H]5-CT)). Conditions: membrane from HEK293 cells for forced expression of human 5-HT5A receptor; Ki calculated from IC50 and Kd of [3H]5-CT (4.95 nM).
T1 construct: expressed in transfected cells; membranes used
Experimental: The ORF (open reading frame; protein coding region) of a human 5-HT5A receptor (Genbank AF498985) was cloned from a human hippocampus cDNA library, and then inserted into a pCR2.1 vector (Invitrogen), and Escherichia coli containing the plasmid was cultured in a large amount. Next, the full-length cDNA sequence of the human 5-HT5A receptor was analyzed, and recombined into a pcDNA3.1 vector (Invitrogen) as an expression vector and cultured in a large amount. HEK293 established cells (ATCC) derived from the human fetal kidney were seeded, the expression plasmid (1 μg) obtained above were added thereto with LIPOFECTAMINE 2000 (Invitrogen; 2 μl), the gene was transfected into HEK293 cells, and the expression cells were screened with a drug-resistant marker, Geneticin (G418 sulfate 500 μg/ml; Kanto Chemical Co., Inc.). Thus prepared recombinant cells which expressed the gene were cultured in a medium containing D-MEM (Dulbecco's modified eagle medium, Sigma), 10% FCS (Fetal calf serum: fetal bovine serum), 1% Pc./Sm (Penicillin/Streptomycin, Invitrogen), and 500 μg/ml G418 for 3 days. These experimental operations followed a manual for gene operation experiment and an instruction appended in a reagent, and the like, such as a known method (Sambrook, J. et al, Molecular Cloning-A Laboratory Manual”, Cold Spring Harabor laboratory, NY, 1989).
HEK293 cells for forced expressions of a human 5-HT5A receptor were cultured in a F500 plate, and scraped with a scraper. After centrifugation, the precipitate was collected, and an incubation buffer (50 mM Tris (HCl) (pH 7.4), 10 mM MgSO4, and 0.5 mM EDTA (ethylenediamine tetraacetic acid)) was added thereto. After homogenization, it was further centrifuged, and the incubation buffer was added to the precipitate, followed by thoroughly suspending. The operation was repeated, and protein concentration was measured, thereby completing preparation of the membrane.
A solution of the compound to be tested and 100 μM 5-CT (5-carboxamidetriptamine) in DMSO was added to a 96-well plate at 2 μl/well, suspended in an incubation buffer, and a membrane from HEK293 cells for forced expressions of a human 5-HT5A receptor prepared at 200 μg/ml was added at 100 μl/well. After incubation at room temperature for 15 minutes, a [^3H]5-CT solution (2 nM [^3H]5-CT, incubation buffer) was added thereto at 100 μl/well.
Separately, 100 μl of the solution was distributed into a liquid scintillation vial, and 2 ml of Aquasol II (registered trademark) was added thereto, followed by stirring. Then, radioactivity was measured by a liquid scintillation counter. It was incubated at 37° C. for 60 minutes. The reaction mixture was sucked into 96-well GF/C filter plate that had been pre-treated with 0.2% polyethyleneimine, and washed six times with an ice-cooled, 50 mM Tris (pH 7.5) buffer. The GF/C filter plate was dried.
Microscint TMPS (registered trademark) was added thereto at 40 μl/well. Radioactivity remaining on the GF/C filter plate was measured by a top counter.
The [^3H]5-CT binding inhibiting activity by the compound to be tested in each experiment was determined as an IC50 value with a radioactivity upon addition of DMSO alone being 0% inhibition, and a radioactivity upon addition of 1 μM 5-CT being 100% inhibition. Separately, Ki values were calculated from the Kd value of the [^3H]5-CT determined from Scatchard analysis, by the following equation.
Ki=IC50 (1+Concentraion of ligand added/Kd (4.95 nM))

T1 sequence (P47898 whole entry): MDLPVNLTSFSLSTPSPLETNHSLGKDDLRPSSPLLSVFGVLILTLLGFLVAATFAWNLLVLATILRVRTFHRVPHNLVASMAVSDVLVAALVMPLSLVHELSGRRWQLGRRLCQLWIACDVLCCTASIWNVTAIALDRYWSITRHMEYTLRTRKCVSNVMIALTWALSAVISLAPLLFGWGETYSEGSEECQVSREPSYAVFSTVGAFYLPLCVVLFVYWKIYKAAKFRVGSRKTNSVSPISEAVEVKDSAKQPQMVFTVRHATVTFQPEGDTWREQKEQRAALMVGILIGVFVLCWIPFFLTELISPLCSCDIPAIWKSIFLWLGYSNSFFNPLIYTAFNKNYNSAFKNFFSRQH

SMILES	Ki [nM]
COc1cccc(-c2cccc3ccc(C(=O)N=C(N)N)cc23)c1C#N [Example 99]	3 to 30
NC(N)=NC(=O)c1ccc2cccc(-c3cccc(Cl)c3Cl)c2c1 [Example 75]	0.3 to 3
NC(N)=NC(=O)c1ccc2cccc(-c3cccnc3Cl)c2c1 [Example 19]	3 to 30
N#Cc1ccc(F)c(-c2cccc3ccc(C(=O)N=C(N)N)cc23)c1 [Example 81]	0.3 to 3
COc1ccc(C#N)cc1-c1cccc2ccc(C(=O)N=C(N)N)cc12 [Example 15]	3 to 30
Cn1nccc1-c1cccc2ccc(C(=O)N=C(N)N)cc12 [Example 79]	3 to 30
NC(N)=NC(=O)c1ccc2cccc(-c3cc(F)ncc3Cl)c2c1 [Example 65]	3 to 30
COc1cc(F)c(-c2cccc3ccc(C(=O)N=C(N)N)cc23)c(F)c1 [Example 83]	0.3 to 3
NC(N)=NC(=O)c1ccc2cccc(-c3c(Cl)cncc3Cl)c2c1 [Example 45]	0.3 to 3
N#Cc1cccc(F)c1-c1cccc2ccc(C(=O)N=C(N)N)cc12 [Example 26]	0.3 to 3
NC(N)=NC(=O)c1ccc2cccc(-c3cccnc3F)c2c1 [Example 62]	0.3 to 3
NC(N)=NC(=O)c1ccc2cccc(-c3c(O)cccc3F)c2c1 [Example 104]	0.3 to 3
NC(N)=NC(=O)c1ccc2cccc(-c3cccc(Cl)c3F)c2c1 [Example 69]	0.3 to 3
NC(N)=NC(=O)c1ccc2cccc(-c3c(F)cncc3F)c2c1 [Example 31]	0.3 to 3
NC(N)=NC(=O)c1ccc2cccc(-c3ccccc3)c2c1 [Example 87]	0.3 to 3
COc1cc(F)ccc1-c1cccc2ccc(C(=O)N=C(N)N)cc12 [Example 4]	0.3 to 3
COc1cc(-c2cccc3ccc(C(=O)N=C(N)N)cc23)c(Cl)cn1 [Example 63]	3 to 30
NC(N)=NC(=O)c1ccc2cccc(-c3cncc(F)c3)c2c1 [Example 55]	3 to 30
CCOc1nccc(-c2cccc3ccc(C(=O)N=C(N)N)cc23)c1C#N [Example 64]	3 to 30
NC(N)=NC(=O)c1ccc2cccc(-c3sccc3Cl)c2c1 [Example 49]	0.3 to 3

SMILES	Ki [nM]
NC(N)=NC(=O)c1ccc2cccc(-c3c(F)cccc3F)c2c1 [Example 36]	0.3 to 3
Cn1ncc(Cl)c1-c1cccc2ccc(C(=O)N=C(N)N)cc12 [Example 91]	3 to 30
COc1cc(C#N)ccc1-c1cccc2ccc(C(=O)N=C(N)N)cc12 [Example 3]	0.3 to 3
COc1ccc(-c2cccc3ccc(C(=O)N=C(N)N)cc23)c(F)c1 [Example 82]	0.3 to 3
NC(N)=NC(=O)c1ccc2cccc(-c3cccc4c3OCCO4)c2c1 [Example 28]	3 to 30
NC(N)=NC(=O)c1ccc2cccc(-c3ccc(Cl)nc3)c2c1 [Example 54]	3 to 30
N#Cc1c(Cl)cccc1-c1cccc2ccc(C(=O)N=C(N)N)cc12 [Example 85]	0.3 to 3
COc1ccc(-c2cccc3ccc(C(=O)N=C(N)N)cc23)c(C#N)c1 [Example 72]	3 to 30
N#Cc1sccc1-c1cccc2ccc(C(=O)N=C(N)N)cc12 [Example 51]	3 to 30
NC(N)=NC(=O)c1ccc2cccc(-c3cc(Cl)cnc3F)c2c1 [Example 84]	3 to 30
NC(N)=NC(=O)c1ccc2cccc(-c3c(F)cc(F)cc3F)c2c1 [Example 14]	0.3 to 3
CCOc1ncc(Cl)c(-c2cccc3ccc(C(=O)N=C(N)N)cc23)c1F [Example 66]	0.3 to 3
NC(N)=NC(=O)c1ccc2cccc(-c3ccc(F)nc3)c2c1 [Example 23]	3 to 30
N#Cc1ncccc1-c1cccc2ccc(C(=O)N=C(N)N)cc12 [Example 56]	3 to 30
NC(N)=NC(=O)c1ccc2cccc(-c3ccc(Cl)cc3Cl)c2c1 [Example 61]	0.3 to 3
NC(N)=NC(=O)c1ccc2cccc(-c3cc(F)c(F)cc3F)c2c1 [Example 96]	0.3 to 3
NC(N)=NC(=O)c1ccc2cccc(-c3ccc(Cl)cc3)c2c1 [Example 89]	0.3 to 3
NC(N)=NC(=O)c1ccc2cccc(-c3ccc(F)cc3)c2c1 [Example 88]	0.3 to 3
N#Cc1c(F)cccc1-c1cccc2ccc(C(=O)N=C(N)N)cc12 [Example 29]	3 to 30

Results, then the molecule that gave them:

Ki [nM]	SMILES
3 to 30	NC(N)=NC(=O)c1ccc2cccc(-c3cncc4ccccc34)c2c1 [Example 130]
0.3 to 3	NC(N)=NC(=O)c1ccc2ccc(F)c(-c3ccccc3O)c2c1 [Example 161]
0.3 to 3	NC(N)=NC(=O)c1ccc2cccc(-c3c(O)cc(F)cc3F)c2c1 [Example 131]
3 to 30	COc1cc(-c2cccc3ccc(C(=O)N=C(N)N)cc23)ccn1 [Example 112]
3 to 30	Cc1cc(-c2cccc3ccc(C(=O)N=C(N)N)cc23)ccn1 [Example 141]
0.3 to 3	COc1ncccc1-c1c(Cl)ccc2ccc(C(=O)N=C(N)N)cc12 [Example 146]
0.3 to 3	N#Cc1ccc(-c2cccc3ccc(C(=O)N=C(N)N)cc23)c(O)c1 [Example 132]
0.3 to 3	NC(N)=NC(=O)c1ccc2cccc(-c3c(F)ccc(F)c3O)c2c1 [Example 177]
3 to 30	Cc1nc2cccc(-c3cccc4ccc(C(=O)N=C(N)N)cc34)c2o1 [Example 144]
0.3 to 3	NC(N)=NC(=O)c1ccc2c(F)ccc(-c3c(F)cccc3F)c2c1 [Example 175]
3 to 30	NC(N)=NC(=O)c1ccc2cccc(-c3ccccn3)c2c1 [Example 201]
3 to 30	NC(N)=NC(=O)c1ccc2cccc(-c3ccnc(Cl)c3F)c2c1 [Example 172]
0.3 to 3	NC(N)=NC(=O)c1ccc2cccc(-c3c(F)cncc3Cl)c2c1 [Example 148]
0.3 to 3	N#Cc1ccc(-c2c(Cl)ccc3ccc(C(=O)N=C(N)N)cc23)cc1 [Example 125]
3 to 30	NC(N)=NC(=O)c1ccc2cccc(-c3ncc(C(F)(F)F)cc3Cl)c2c1 [Example 194]
3 to 30	COCc1cc(F)c(-c2cccc3ccc(C(=O)N=C(N)N)cc23)c(F)c1 [Example 120]
3 to 30	Cc1nc(-c2ccccc2)sc1-c1cccc2ccc(C(=O)N=C(N)N)cc12 [Example 122]

Ki [nM]	SMILES
30 to 300	Cc1nc(-c2cccc3ccc(C(=O)N=C(N)N)cc23)ccc1F [Example 158]
0.3 to 3	NC(N)=NC(=O)c1ccc2cccc(-c3cccc(O)c3F)c2c1 [Example 106]
0.3 to 3	NC(N)=NC(=O)c1ccc2cccc(-c3cccc4ccncc34)c2c1 [Example 167]
0.3 to 3	NC(N)=NC(=O)c1ccc2cccc(-c3cccc4cnccc34)c2c1 [Example 128]
0.3 to 3	NC(N)=NC(=O)c1ccc2cccc(-c3cccc(F)c3O)c2c1 [Example 105]
0.3 to 3	NC(N)=NC(=O)c1ccc2ccc(Cl)c(-c3ccncc3F)c2c1 [Example 156]
0.3 to 3	N#Cc1cc(F)cc(F)c1-c1cccc2ccc(C(=O)N=C(N)N)cc12 [Example 149]
0.3 to 3	NC(N)=NC(=O)c1ccc2cccc(-c3c(F)cc(O)cc3F)c2c1 [Example 142]
0.3 to 3	NC(N)=NC(=O)c1ccc2cccc(-c3cc(Cl)ncc3F)c2c1 [Example 197]
3 to 30	NC(N)=NC(=O)c1ccc2cccc(-c3ncccc3Cl)c2c1 [Example 108]
30 to 300	NC(N)=NC(=O)c1ccc2cccc(-c3cc(C(F)(F)F)ccn3)c2c1 [Example 176]
3 to 30	NC(N)=NC(=O)c1ccc2cccc(-c3cc(C(F)(F)F)ncn3)c2c1 [Example 183]
0.3 to 3	COc1cc(C#N)ccc1-c1ccc(F)c2ccc(C(=O)N=C(N)N)cc12 [Example 188]
3 to 30	Cc1cc(-c2cccc3ccc(C(=O)N=C(N)N)cc23)cc(C)n1 [Example 166]
0.3 to 3	NC(N)=NC(=O)c1ccc2cccc(-c3c(F)cccc3C3CC3)c2c1 [Example 191]
0.3 to 3	NC(N)=NC(=O)c1ccc2cccc(-c3ccnc4ccccc34)c2c1 [Example 129]
